pIC50: −log10 of the molar value. Converted amounts (≈) assume the structure as drawn. The source made the active and inactive calls. The calls are words filed in the database; no cut-off is given here.
How the values were obtained:
[1] = Half life in CD-1 mouse at 0.6 mg/kg, iv; assay type: ADME, organism-based; conditions: in vivo
[2] = tested on: Mycobacterium tuberculosis; test: Antimycobacterial activity against Mycobacterium tuberculosis H37Rv assessed as bacterial growth inhibition incubated for 7 days by MABA assay; assay type: functional; conditions: 168 h, time 7 day
[3] = Cytotoxicity against African green monkey vero cells assessed as reduction in cell viability; assay type: toxicity, cell-based; conditions: chlorocebus sabaeus
[4] = Oral bioavailability in CD-1 mouse at 5 mg/kg; assay type: ADME, organism-based; conditions: in vivo
[5] = Clearance in CD-1 mouse at 0.6 mg/kg, iv; assay type: ADME, organism-based; conditions: in vivo
[6] = AUC (0-last) in CD-1 mouse at 5 mg/kg, po; assay type: ADME, organism-based; design: dose 5 mg/kg, route po; conditions: in vivo
[7] = Volume of distribution in CD-1 mouse at 0.6 mg/kg, iv; assay type: ADME, organism-based; conditions: in vivo
[8] = Cmax in CD-1 mouse at 5 mg/kg, po; assay type: ADME, organism-based; design: dose 5 mg/kg, route po; conditions: in vivo
[9] = tested on: Mycobacterium tuberculosis; test: In vivo antimycobacterial activity against Mycobacterium tuberculosis Erdman infected mouse acute tuberculosis infection model assessed as reduction lung bacterial load by measuring CFU at 15 mg/kg for 3 weeks at 5 days/week; assay type: functional, organism-based
[10] = tested on: Mycobacterium tuberculosis; test: Antimycobacterial activity against clinical isolate drug susceptible Mycobacterium tuberculosis H37Rv assessed as bacterial growth inhibition; assay type: functional
[11] = target: Voltage-gated inwardly rectifying potassium channel KCNH2 (Homo sapiens, UniProt Q12809); test: Inhibition of human ERG; assay type: toxicity
Sequence of Voltage-gated inwardly rectifying potassium channel KCNH2 (Q12809 whole entry): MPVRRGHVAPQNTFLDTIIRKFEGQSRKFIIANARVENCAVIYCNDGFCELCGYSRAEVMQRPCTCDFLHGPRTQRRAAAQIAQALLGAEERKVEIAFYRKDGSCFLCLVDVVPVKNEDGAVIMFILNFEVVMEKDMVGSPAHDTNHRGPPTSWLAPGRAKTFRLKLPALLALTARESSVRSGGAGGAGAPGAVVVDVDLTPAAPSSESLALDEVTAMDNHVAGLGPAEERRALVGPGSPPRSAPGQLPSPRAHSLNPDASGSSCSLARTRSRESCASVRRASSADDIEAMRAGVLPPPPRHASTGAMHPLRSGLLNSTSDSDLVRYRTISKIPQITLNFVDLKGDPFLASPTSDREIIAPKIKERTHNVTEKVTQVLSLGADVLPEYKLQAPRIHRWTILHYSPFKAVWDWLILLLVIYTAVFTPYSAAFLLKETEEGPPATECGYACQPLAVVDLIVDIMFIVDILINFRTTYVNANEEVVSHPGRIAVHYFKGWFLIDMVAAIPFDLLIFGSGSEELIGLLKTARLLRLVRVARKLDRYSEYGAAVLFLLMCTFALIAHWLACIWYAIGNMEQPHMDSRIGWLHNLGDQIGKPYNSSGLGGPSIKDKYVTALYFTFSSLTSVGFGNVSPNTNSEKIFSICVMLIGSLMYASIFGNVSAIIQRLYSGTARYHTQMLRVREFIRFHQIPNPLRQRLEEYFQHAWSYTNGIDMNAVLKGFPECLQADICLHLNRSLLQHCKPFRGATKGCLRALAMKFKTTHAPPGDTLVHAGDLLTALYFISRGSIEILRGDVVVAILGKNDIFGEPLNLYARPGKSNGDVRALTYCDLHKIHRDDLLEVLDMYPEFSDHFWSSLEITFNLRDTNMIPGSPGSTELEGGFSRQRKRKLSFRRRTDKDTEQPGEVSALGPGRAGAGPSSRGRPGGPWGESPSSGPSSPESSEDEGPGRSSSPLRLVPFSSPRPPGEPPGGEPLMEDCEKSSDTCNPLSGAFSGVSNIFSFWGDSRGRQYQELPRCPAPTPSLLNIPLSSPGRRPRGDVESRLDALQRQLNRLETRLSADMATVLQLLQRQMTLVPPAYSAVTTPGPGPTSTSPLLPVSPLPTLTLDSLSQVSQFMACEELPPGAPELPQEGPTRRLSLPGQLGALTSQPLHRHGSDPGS

[12] = Metabolic stability in human assessed as half life; assay type: ADME
[13] = Plasma protein binding in mouse assessed as bound fraction; assay type: ADME, cell-free; conditions: read-out: PPB (converted)
[14] = Plasma protein binding in human assessed as bound fraction; assay type: ADME, cell-free; conditions: read-out: PPB (converted)
[15] = tested on: Mycobacterium tuberculosis; test: In vivo antimycobacterial activity against Mycobacterium tuberculosis Erdman infected mouse acute tuberculosis infection model assessed as reduction lung bacterial loads by measuring CFU at 10 to 100 mg/kg for 3 weeks at 5 days/week; assay type: functional, organism-based; conditions: dose 10-100 mg/kg, DDE = dose-dependent effect
[16] = Metabolic stability in mouse liver microsomes assessed as half life; assay type: ADME, Microsome
[17] = tested on: Mycobacterium tuberculosis; test: In vivo antimycobacterial activity against Mycobacterium tuberculosis Erdman infected mouse chronic tuberculosis infection model assessed as reduction log10 CFU at 10 to 100 mg/kg for 4 weeks at 5 days/week administered after 31 days post infection relative to control; assay type: functional; conditions: dose 10-100 mg/kg
[18] = Apparent permeability across apical to basolateral side in dog MDCK cells; assay type: ADME, cell-based, Canis lupus familiaris
[19] = tested on: Mycobacterium tuberculosis; test: Antimycobacterial activity against Mycobacterium tuberculosis H37Rv assessed as bacterial growth inhibition incubated for 10 days under hypoxic condition followed by 28 hrs incubation under normoxic condition by Low-Oxygen-Recovery Assay; assay type: functional; conditions: 264 h, time 11 day
Cytochrome P450 1A2 = target: T1, Cytochrome P450 1A2 (Homo sapiens, UniProt P05177); test: Inhibition of CYP1A2 (unknown origin); assay type: ADME
T1 sequence (P05177 whole entry): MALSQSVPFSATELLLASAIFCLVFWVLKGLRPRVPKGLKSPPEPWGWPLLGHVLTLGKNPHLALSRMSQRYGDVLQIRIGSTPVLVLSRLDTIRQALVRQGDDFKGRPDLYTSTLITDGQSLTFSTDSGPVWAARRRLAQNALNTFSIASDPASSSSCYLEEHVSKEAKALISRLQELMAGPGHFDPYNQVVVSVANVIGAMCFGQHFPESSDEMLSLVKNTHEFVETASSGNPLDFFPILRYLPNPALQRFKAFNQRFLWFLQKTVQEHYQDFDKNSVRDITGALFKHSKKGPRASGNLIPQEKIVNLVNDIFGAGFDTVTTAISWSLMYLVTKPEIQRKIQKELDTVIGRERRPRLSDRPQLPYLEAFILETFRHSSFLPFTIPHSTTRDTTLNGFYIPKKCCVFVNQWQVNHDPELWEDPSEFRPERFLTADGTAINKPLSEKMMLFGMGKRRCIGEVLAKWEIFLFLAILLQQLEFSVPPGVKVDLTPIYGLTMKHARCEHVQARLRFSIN

Cytochrome P450 3A4 = Cytochrome P450 3A4 (Homo sapiens, UniProt P08684); test: Inhibition of CYP3A4 (unknown origin); assay type: ADME
Sequence of Cytochrome P450 3A4 (P08684 whole entry): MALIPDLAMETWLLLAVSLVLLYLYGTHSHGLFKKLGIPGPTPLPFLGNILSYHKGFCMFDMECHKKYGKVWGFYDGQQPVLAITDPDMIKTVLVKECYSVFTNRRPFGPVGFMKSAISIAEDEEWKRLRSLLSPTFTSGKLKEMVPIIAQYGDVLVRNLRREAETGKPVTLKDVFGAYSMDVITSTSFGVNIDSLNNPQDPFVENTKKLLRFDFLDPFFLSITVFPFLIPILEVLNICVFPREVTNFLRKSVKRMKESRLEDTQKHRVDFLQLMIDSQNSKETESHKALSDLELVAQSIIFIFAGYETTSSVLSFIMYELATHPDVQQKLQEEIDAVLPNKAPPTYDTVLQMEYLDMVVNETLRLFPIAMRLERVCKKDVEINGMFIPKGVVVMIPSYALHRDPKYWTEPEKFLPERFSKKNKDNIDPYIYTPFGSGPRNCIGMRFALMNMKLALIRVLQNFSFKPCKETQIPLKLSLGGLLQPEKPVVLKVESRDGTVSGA

[20] = Metabolic stability in rat liver microsomes assessed as half life; assay type: ADME, Microsome
[21] = Plasma protein binding in dog assessed as bound fraction; assay type: ADME, cell-free, Canis lupus familiaris; conditions: read-out: PPB (converted)
Cytochrome P450 2C19 = Cytochrome P450 2C19 (Homo sapiens, UniProt P33261); test: Inhibition of CYP2C19 (unknown origin); assay type: ADME
Sequence of Cytochrome P450 2C19 (P33261 whole entry): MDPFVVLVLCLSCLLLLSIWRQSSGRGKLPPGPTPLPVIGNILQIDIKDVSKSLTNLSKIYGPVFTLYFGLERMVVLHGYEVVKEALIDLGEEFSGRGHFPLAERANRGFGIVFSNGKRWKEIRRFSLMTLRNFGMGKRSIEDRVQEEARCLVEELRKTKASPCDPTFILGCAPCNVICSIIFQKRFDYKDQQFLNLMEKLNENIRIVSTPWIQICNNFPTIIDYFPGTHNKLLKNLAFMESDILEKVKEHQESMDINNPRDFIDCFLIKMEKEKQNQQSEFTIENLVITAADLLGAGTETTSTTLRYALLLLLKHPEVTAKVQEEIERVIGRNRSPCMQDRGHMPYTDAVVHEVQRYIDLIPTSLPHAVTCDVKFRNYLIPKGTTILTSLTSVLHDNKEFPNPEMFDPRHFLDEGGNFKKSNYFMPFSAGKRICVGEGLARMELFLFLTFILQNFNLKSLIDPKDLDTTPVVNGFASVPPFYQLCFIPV

[22] = Metabolic stability in human liver microsomes assessed as half life; assay type: ADME, Microsome
Cytochrome P450 2C9 = Cytochrome P450 2C9 (Homo sapiens, UniProt P11712); test: Inhibition of CYP2C9 (unknown origin); assay type: ADME
Sequence of Cytochrome P450 2C9 (P11712 whole entry): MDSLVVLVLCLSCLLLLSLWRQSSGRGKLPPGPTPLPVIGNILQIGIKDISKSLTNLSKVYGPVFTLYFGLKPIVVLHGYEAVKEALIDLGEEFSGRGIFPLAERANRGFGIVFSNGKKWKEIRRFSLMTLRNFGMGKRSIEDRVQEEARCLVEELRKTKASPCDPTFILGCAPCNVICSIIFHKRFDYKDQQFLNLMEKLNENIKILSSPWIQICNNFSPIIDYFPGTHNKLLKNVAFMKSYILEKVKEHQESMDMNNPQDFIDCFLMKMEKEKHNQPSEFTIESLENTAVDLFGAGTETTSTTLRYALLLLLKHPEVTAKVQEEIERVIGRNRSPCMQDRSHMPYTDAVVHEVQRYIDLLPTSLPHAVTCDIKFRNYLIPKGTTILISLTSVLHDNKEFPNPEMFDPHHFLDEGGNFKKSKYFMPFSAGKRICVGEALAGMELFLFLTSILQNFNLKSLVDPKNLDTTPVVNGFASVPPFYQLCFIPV

[23] = tested on: Mycobacterium tuberculosis; test: Antimycobacterial activity against Mycobacterium tuberculosis Erdman assessed as bacterial growth inhibition; assay type: functional
[24] = Plasma protein binding in rat assessed as bound fraction; assay type: ADME, cell-free; conditions: read-out: PPB (converted)
Cytochrome P450 2C8 = target: T2, Cytochrome P450 2C8 (Homo sapiens, UniProt P10632); test: Inhibition of CYP2C8 (unknown origin); assay type: ADME
T2 sequence (P10632 whole entry): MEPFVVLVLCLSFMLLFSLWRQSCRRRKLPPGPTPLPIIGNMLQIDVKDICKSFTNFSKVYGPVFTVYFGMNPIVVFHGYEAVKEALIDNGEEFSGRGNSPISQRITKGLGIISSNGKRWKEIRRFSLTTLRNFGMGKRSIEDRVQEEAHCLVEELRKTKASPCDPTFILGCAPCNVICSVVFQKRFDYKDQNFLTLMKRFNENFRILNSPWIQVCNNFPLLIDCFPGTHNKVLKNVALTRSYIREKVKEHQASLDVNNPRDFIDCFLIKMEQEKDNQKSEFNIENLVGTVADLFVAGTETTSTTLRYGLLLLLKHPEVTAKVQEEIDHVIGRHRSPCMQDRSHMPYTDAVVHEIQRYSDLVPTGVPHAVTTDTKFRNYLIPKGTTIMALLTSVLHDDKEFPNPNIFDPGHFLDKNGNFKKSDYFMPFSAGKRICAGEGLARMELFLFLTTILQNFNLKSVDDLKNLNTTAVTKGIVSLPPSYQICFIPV

Cytochrome P450 2D6 = Cytochrome P450 2D6 (Homo sapiens, UniProt P10635); test: Inhibition of CYP2D6 (unknown origin); assay type: ADME
Sequence of Cytochrome P450 2D6 (P10635 whole entry): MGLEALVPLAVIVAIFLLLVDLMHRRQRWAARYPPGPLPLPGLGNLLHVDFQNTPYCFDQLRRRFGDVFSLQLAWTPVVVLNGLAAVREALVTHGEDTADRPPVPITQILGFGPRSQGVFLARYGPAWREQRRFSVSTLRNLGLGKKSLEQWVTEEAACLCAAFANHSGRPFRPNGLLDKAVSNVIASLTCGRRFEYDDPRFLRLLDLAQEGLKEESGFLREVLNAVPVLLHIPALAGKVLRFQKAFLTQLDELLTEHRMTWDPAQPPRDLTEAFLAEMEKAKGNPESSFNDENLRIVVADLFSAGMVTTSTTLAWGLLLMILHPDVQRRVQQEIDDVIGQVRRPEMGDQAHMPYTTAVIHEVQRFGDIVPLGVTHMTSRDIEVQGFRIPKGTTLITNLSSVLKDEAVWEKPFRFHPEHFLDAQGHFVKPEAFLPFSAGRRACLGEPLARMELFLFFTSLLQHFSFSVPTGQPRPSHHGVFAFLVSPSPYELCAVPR

Cytochrome P450 2B6 = target: T3, Cytochrome P450 2B6 (Homo sapiens, UniProt P20813); test: Inhibition of CYP2B6 (unknown origin); assay type: ADME
T3 sequence (P20813 whole entry): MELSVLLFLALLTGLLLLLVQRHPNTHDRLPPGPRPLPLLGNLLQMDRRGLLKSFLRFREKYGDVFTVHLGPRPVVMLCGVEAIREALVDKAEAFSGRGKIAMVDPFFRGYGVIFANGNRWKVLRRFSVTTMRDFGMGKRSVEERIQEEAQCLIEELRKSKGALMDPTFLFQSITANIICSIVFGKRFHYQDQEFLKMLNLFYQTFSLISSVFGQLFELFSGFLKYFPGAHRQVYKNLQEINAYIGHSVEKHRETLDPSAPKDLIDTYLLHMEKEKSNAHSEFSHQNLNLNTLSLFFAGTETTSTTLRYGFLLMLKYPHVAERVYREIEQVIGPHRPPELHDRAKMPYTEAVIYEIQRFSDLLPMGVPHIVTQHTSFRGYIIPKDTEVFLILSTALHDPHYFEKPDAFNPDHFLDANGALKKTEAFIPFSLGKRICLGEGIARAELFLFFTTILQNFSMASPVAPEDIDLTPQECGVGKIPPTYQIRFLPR

Structure (SMILES) | half-life [1] [h] | MIC [2] [µg/mL] | CC50 [3] [µg/mL] | Vd [7] [L/kg] | Cmax [8] [ng/mL] | MIC50 [10] [µg/mL] | MIC90 [10] [µg/mL] | pIC50 [11] | half-life [16] [h] | MIC [19] [µg/mL] | half-life [20] [h] | half-life [22] [h] | also measured
C[C@]1(CN2Cc3nc(-c4ccc(F)cn4)sc3C2)Cn2cc([N+](=O)[O-])nc2O1 | 1.71 | 0.03 (≈ 0.0746 µM) | > 32 | 2.02 | 385 | – | – | – | – | – | – | – | bioavailability ([4]; CD-1, mouse): 24.5%; clearance [5]: 12.7 mL/min/kg; AUC(0-t) ([6]; CD-1, mouse): 2920 ng·h/mL
CO[C@H]1/C=C/O[C@@]2(C)Oc3c(C)c(O)c4c(O)c(c(/C=N/N5CCN(C)CC5)c(O)c4c3C2=O)NC(=O)/C(C)=C\C=C\[C@H](C)[C@H](O)[C@@H](C)[C@@H](O)[C@@H](C)[C@H](OC(C)=O)[C@@H]1C [RIFAMPIN] | – | – | – | – | – | 0.035 (≈ 0.0425 µM) | 0.064 (≈ 0.0778 µM) | – | – | – | – | – | Activity [9]: Active
C[C@]1(COc2ccc(N3CCC(Oc4ccc(OC(F)(F)F)cc4)CC3)cc2)CN=C(N)O1 [DM-6705] | – | – | – | – | – | – | – | 7.09 | – | – | – | – | half-life [12]: 122 h
C[C@]1(COc2ccc(N3CCC(Oc4ccc(OC(F)(F)F)cc4)CC3)cc2)Cn2cc([N+](=O)[O-])nc2O1 | – | 0.006 (≈ 0.0112 µM) | > 32 | – | – | 0.002 (≈ 0.00374 µM) | 0.004 (≈ 0.00748 µM) | < 4.52 | > 2.42 | 0.61 (≈ 1.14 µM) | > 2.42 | 1.4 | fraction unbound [13]: 0.005; fraction unbound [14]: 0.005; Activity [15]: Dde; Activity [17]: 1 log10CFU; Papp A→B [18]: 0.09 ×10⁻⁶ cm/s; pIC50 (Cytochrome P450 1A2): < 4.00; pIC50 (Cytochrome P450 3A4): < 4.00; fraction unbound [21]: 0.005; pIC50 (Cytochrome P450 2C19): < 4.00; pIC50 (Cytochrome P450 2C9): < 4.00; MIC [23]: 0.015 µg/mL (≈ 0.0281 µM); fraction unbound [24]: 0.004; pIC50 (Cytochrome P450 2C8): < 4.00; pIC50 (Cytochrome P450 2D6): < 4.00; pIC50 (Cytochrome P450 2B6): < 4.00
C[C@]1(CN2CCc3nc(-c4ccc(F)cc4)ccc3C2)Cn2cc([N+](=O)[O-])nc2O1 | – | < 0.031 | > 32 | – | – | – | – | – | 0.367 | 4.83 (≈ 11.8 µM) | 0.1 | 0.417 | –
Cc1cc(F)ccc1-c1nc2c(s1)CN(C[C@@]1(C)Cn3cc([N+](=O)[O-])nc3O1)C2 | 2.06 | < 0.013 | > 32 | 3.38 | 201 | – | – | – | – | – | – | – | F ([4]; mouse, po, 5 mg/kg): 20.5%; AUClast ([6]; mouse): 1441 ng·h/mL

Reference: ChEMBL document CHEMBL5113463, “Discovery and preclinical evaluations of JBD0131, a novel nitrodihydro-imidazooxazole anti-tuberculosis agent” (Bioorg Med Chem Lett, 2022)
